Data taken from patent publication US20250243194A1, “ANTAGONIST OF ADENOSINE RECEPTORS” (AdoRx Therapeutics Limited, priority 2022, published 2025).

Legend:
[1] = molecular target: human Adenosine A2b receptor (Homo sapiens (Human), UniProt P29275); assay: Adenosine receptor TR-FRET binding assay (A2b); conditions: inhibition of binding of 30 nM CA200645; CHO cell membranes; Ki from IC50 by Cheng and Prusoff
Experimental: (§1) All FRET binding experiments were conducted at room temperature in white 384-well plates, in assay binding buffer containing 1× LabMed (Cisbio, France), 100 μg/mL saponin, 1% DMSO and 0.02% pluronic acid. Binding of the fluorescently labelled Adenosine receptor antagonist XAC (CA200645, FRET acceptor) to terbium-labelled A1, A2a, A2b and A3 adenosine receptors (FRET donors) was detected by time-resolved FRET due to the close proximity of the donor and acceptor in a binding event. To investigate the ability of unlabelled test compounds to bind to Adenosine A1, A2a, A2b and A3 receptors, dose response curves were constructed that determined the ability of a range of concentrations to inhibit the binding of 30 nM CA200645 to the A2b receptor and 100 nM CA200645 to the A1, A2a, and A3 receptor.
(§2) Serial dilution (1:3 dilutions) of test compounds in neat DMSO and transfer of a 400 nL sample of test compound into the assay plate was carried out using the Mosquito (TTP Labtech, UK). The compound samples were incubated for 2 hours at room temperature with a fixed concentration of CA200645 defined for each receptor (see above) and CHO cell membranes containing the human Adenosine A1 (0.5 μg/well), A2a (0.3 μg/well), A2b (1 μg/well) or A3 (1 μg/well) receptor in 40 μL of assay buffer. Total and non-specific binding of CA200645 was determined in the absence and presence of 10 μM XAC, respectively. Following 2 hours incubation, the level of CA200645 binding was detected on a Pherastar FSX (BMG Labtech, Germany) using standard TR-FRET settings. The terbium donor was excited with three laser flashes at a wavelength of 337 nm, and donor and acceptor emission was detected at 620 nm and 665 nm wavelengths, respectively. FRET ratios were obtained by multiplying the acceptor/donor ratio value by 10,000. Specific binding was determined by subtracting the non-specific binding FRET ratio from the total binding FRET ratio. Compound IC50 curves were analysed using GraphPad Prism 7.0 (GraphPad, USA) and Ki affinity values were determined from the obtained IC50 values using the method of Cheng and Prusoff.

[2] = molecular target: human Adenosine A1 receptor (Homo sapiens (Human), UniProt P30542); assay: Adenosine receptor TR-FRET binding assay (A1); conditions: inhibition of binding of 100 nM CA200645; CHO cell membranes; Ki from IC50 by Cheng and Prusoff
Experimental: as §1, §2

[3] = molecular target: human Adenosine A2a receptor (Homo sapiens (Human), UniProt P29274); assay: Adenosine receptor TR-FRET binding assay (A2a); conditions: inhibition of binding of 100 nM CA200645; CHO cell membranes; Ki from IC50 by Cheng and Prusoff
Experimental: as §1, §2

[4] = molecular target: human Adenosine A3 receptor (Homo sapiens (Human), UniProt P0DMS8); assay: Adenosine receptor TR-FRET binding assay (A3); conditions: inhibition of binding of 100 nM CA200645; CHO cell membranes; Ki from IC50 by Cheng and Prusoff
Experimental: as §1, §2

Sequence of human Adenosine A3 receptor (P0DMS8 whole entry): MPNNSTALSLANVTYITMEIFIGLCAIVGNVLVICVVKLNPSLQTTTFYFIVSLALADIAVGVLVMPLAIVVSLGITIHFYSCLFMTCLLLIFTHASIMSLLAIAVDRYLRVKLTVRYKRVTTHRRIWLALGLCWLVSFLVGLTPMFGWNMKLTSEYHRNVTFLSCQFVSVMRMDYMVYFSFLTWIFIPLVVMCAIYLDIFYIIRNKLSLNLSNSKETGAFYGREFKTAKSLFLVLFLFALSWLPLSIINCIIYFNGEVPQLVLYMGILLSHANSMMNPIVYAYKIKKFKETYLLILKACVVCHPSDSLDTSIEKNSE
Sequence of human Adenosine A1 receptor (P30542 whole entry): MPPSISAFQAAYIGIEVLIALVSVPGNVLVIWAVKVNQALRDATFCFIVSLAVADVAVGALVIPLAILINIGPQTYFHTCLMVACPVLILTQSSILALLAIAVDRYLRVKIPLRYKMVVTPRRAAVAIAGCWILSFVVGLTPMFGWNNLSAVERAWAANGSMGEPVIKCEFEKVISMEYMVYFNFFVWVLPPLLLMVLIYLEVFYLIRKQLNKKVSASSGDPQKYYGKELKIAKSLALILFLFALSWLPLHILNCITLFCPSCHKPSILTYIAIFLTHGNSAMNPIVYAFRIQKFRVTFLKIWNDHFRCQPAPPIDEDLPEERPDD
Sequence of human Adenosine A2a receptor (P29274 whole entry): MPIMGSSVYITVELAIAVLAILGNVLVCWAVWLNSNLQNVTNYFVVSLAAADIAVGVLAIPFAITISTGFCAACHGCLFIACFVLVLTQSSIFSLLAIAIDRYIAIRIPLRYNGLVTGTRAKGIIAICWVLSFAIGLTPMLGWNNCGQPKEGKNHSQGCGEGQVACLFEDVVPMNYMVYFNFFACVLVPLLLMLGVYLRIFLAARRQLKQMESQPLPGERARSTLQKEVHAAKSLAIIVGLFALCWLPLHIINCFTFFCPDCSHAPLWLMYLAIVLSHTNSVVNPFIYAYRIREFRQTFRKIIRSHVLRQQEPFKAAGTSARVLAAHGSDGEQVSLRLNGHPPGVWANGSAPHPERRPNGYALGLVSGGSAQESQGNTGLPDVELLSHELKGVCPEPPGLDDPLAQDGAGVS
Sequence of human Adenosine A2b receptor (P29275 whole entry): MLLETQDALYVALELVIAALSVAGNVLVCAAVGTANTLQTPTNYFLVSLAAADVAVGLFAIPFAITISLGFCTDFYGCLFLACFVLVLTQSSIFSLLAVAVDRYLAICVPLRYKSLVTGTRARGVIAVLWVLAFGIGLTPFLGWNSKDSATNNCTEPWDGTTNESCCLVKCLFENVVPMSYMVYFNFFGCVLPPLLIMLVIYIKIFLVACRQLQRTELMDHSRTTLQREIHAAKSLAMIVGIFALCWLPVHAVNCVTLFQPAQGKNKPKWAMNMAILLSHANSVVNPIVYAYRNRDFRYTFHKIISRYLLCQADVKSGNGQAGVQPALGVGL

For `N#Cc1cccc(-c2nc(NC(=O)N3CC4(COC4)C3)sc2-c2ccc3nccn3c2)c1` [Example 26, N-[4-(3-Cyanophenyl)-5-imidazo[1,2-a]pyridin-6-yl-thiazol-2-yl]-2-oxa-6-azaspiro[3.3]heptane-6-carboxamide], the Ki [1] was 0.5 nM, the Ki [2] was 0.3 nM and the Ki [3] was 0.33 nM. The Ki [4] was 904 nM.

`Cc1cc(-c2sc(NC(=O)N3CC4(COC4)C3)nc2-c2cccc(C#N)c2)cnc1-n1nccn1` [Example 32, N-[4-(3-Cyanophenyl)-5-[5-methyl-6-(triazol-2-yl)-3-pyridyl]thiazol-2-yl]-2-oxa-6-azaspiro[3.3]heptane-6-carboxamide] was tested, and the Ki [1] was 136 nM, the Ki [2] was 272 nM and the Ki [3] was 8.87 nM. For the same compound, the Ki [4] was 103 nM.

With `Cc1cc(-c2sc(NC(=O)N3CC4(COC4)C3)nc2-c2cccc(C#N)c2)cnn1` [Example 31, N-[4-(3-Cyanophenyl)-5-(6-methylpyridazin-4-yl)thiazol-2-yl]-2-oxa-6-azaspiro[3.3]heptane-6-carboxamide] the Ki [1] was 38.7 nM, the Ki [2] was 57 nM and the Ki [3] was 4.31 nM. For the same compound, the Ki [4] was 1180 nM.

Work on `Cc1cnc2ccc(-c3sc(NC(=O)N4CC5(COC5)C4)nc3-c3cccc(C#N)c3)cn12` [Example 22, N-[4-(3-Cyanophenyl)-5-(3-methylimidazo[1,2-a]pyridin-6-yl)thiazol-2-yl]-2-oxa-6-azaspiro[3.3]heptane-6-carboxamide] yielded a Ki [1] of 1.4 nM, a Ki [2] of 0.4 nM and a Ki [3] of 0.15 nM. It also gave a Ki [4] of 2550 nM.

With `Cn1cnc2ccc(-c3sc(NC(=O)N4CC5(COC5)C4)nc3-c3cccc(C#N)c3)cc21` [Example 25, N-[4-(3-Cyanophenyl)-5-(3-methylbenzimidazol-5-yl)thiazol-2-yl]-2-oxa-6-azaspiro[3.3]heptane-6-carboxamide] the Ki [1] was 0.5 nM, the Ki [2] was 0.3 nM and the Ki [3] was 0.07 nM. For the same compound, the Ki [4] was 1730 nM.

`Cc1cc(-c2sc(NC(=O)N3CC4(COC4)C3)nc2-c2cccc(C#N)c2)c2[nH]ncc2n1` [Example 23, N-[4-(3-Cyanophenyl)-5-(5-methyl-1H-pyrazolo[4,3-b]pyridin-7-yl)thiazol-2-yl]-2-oxa-6-azaspiro[3.3]heptane-6-carboxamide] gave a Ki [1] of 1.6 nM, a Ki [2] of 467 nM and a Ki [3] of 6.56 nM. It also gave a Ki [4] of 126 nM.

In the case of `Cc1ncnc2ccc(-c3sc(NC(=O)N4CC[C@@](C)(C#N)C4)nc3-c3cccc(C#N)c3)cc12` [Example 7.1, (3R)-3-Cyano-N-[4-(3-cyanophenyl)-5-(4-methylquinazolin-6-yl)thiazol-2-yl]-3-methyl-pyrrolidine-1-carboxamide], the Ki [1] is reported as 0.9 nM, the Ki [2] is reported as 121 nM and the Ki [3] is reported as 36.9 nM. The Ki [4] was 828 nM.

`N#Cc1cccc(-c2nc(NC(=O)N3CC4(COC4)C3)sc2-c2ccnc3[nH]ccc23)c1` [Example 2.4, N-[4-(3-Cyanophenyl)-5-(1H-pyrrolo[2,3-b]pyridin-4-yl)thiazol-2-yl]-2-oxa-6-azaspiro[3.3]heptane-6-carboxamide] gave a Ki [1] of 0.5 nM, a Ki [2] of 1 nM and a Ki [3] of 1 nM. The Ki [4] was 290 nM.
